Converted amounts (≈) assume the structure as drawn. Read-outs that look alike come from different tables or passages of the source.
What was measured:
[1] = tested on: A549 human tumor cell line; assay: Cytotoxicity assay, MTT method, A549; type: cell-based
Method: The cytotoxicity of Fr. […] The IC50 value of each compound was calculated by Reed and Muench’s method. Experiments were repeated three times and carried out in triplicate.

[2] = tested on: HeLa human tumor cell line; assay: Cytotoxicity assay, MTT method, HeLa; type: cell-based
Description: (§1) A frozen specimen of Muriceides collaris (9.6 kg, wet weight) was homogenized and then extracted with MeOH four times (each time, 3 days) at room temperature. The combined solutions were concentrated in vacuo and the concentrated extract was subsequently desalted by redissolving with MeOH to yield a residue (221 g). The crude extract was subjected to silica gel vacuum liquid chromatography (VLC), eluting with a gradient of petroleum/acetone (from 10:0 to 1:1, v:v) and subsequently CH2Cl2/MeOH (from 20:1 to 0:1, v-v) to obtain nine fractions (Fr.A−Fr.I). Each fraction was detected by TLC, and was tested for their cytotoxicity against HeLa and K562 cell lines at 50 μg/mL. […] Fr.G (3.5 g) was then subjected to a Sephadex LH-20 column eluted with CH2Cl2/MeOH (1:1, v/v) to give […]. Fr.G-3 (1.018 g) was separated by silica gel CC (CH2Cl2/MeOH, 30:1, v-v) to give six subfractions (Fr.G-3-1 to Fr.G-3-6). Fr.G-3-2 (223 mg) was purified by ODS CC with a gradient of MeOH/H2O (from 20% to 100%) to yield four subfractions (Fr.G-3-2-1 to Fr.G-3-2-4). Fr.G-3-2-3 (25.0 mg) was purified by semi-preparative HPLC (ODS, 5 μm, 250 × 10 mm; MeOH/H2O, 65:35, v/v; 1.5 mL/min) to afford muriceidines A (1, 10.3 mg) and B (2, 9.6 mg). Fr.G-3-4 (137 mg) was purified by ODS column chromatograph with a gradient of MeOH/H2O (from 20% to 100%) to yield four subfractions (Fr.G-3-4-1 to Fr.G-3-4-4). And Fr.G-3-4-1 (9.6 mg) was further purified by semi-preparative HPLC (ODS, 5 μm, 250 × 10 mm; MeOH/H2O, 60:40, v/v; 1.5 mL/min) to afford muriceidine C (3, 4.6 mg). Similarly, muriceidone A (4, 3.7 mg) and the co-isolated known 3-formylguaiazulene (6, 9.1 mg) was obtained in subfraction Fr. […] And GA (5, 1.5 mg) was obtained in subfraction Fr. […] Chiral seperations of partial 2 [Daicel Chiralpack IB, 5 μm, 4.6 mm × 250 mm], 3 [Daicel Chiralpack IC, 5 μm, 4.6 mm × 250 mm; MeOH, 1.5 mL/min], and 4 [Daicel Chiralpack IC, 5 μm, 4.6 mm × 250 mm; Hexane/isopropyl alcohol 97:3, 1.5 mL/min] were performed on Agilent analytical HPLC system to afford optically pure (+)-2 (0.9 mg), (−)-2 (1.2 mg), (+)-3 (2.5 mg), (−)-3 (2.2 mg), (+)-4 (1.5 mg), and (−)-4 (1.6 mg) (Fig. S1).
(§2) The cytotoxicity of Fr. A–I against K562 and HeLa cell lines and compounds 1–4 against K562, HeLa, A-549, and HL-60 human tumor cell lines were determined by MTT method with Adriamycin as a positive control. The IC50 value of each compound was calculated by Reed and Muench’s method. Experiments were repeated three times and carried out in triplicate.

[3] = tested on: K562 human tumor cell line; assay: Cytotoxicity assay, MTT method, K562; type: cell-based
Description: as §1, §2

[4] = tested on: HL-60 human tumor cell line; assay: Cytotoxicity assay, MTT method, HL-60; type: cell-based; conditions: HL-60 cell line
Method: as §2

[5] = tested on: larvae of the barnacle Balanus albicostatus; assay: Antifouling assay, barnacle larval settlement and mortality; type: in vivo, Balanus albicostatus Pilsbry; conditions: Fistulobalanus albicostatus, read-out: EC50 antifouling activity (50% of larval population inhibited to settle)
Method: The antifouling activity of compounds 1–6 against larval of the barnacle Balanus albicostatus Pilsbry were determined according to the literature. EC50 was calculated as the concentration where 50% of the larval population was inhibited to settle as compared to the control while LC50 was calculated as the concentration where 50% of the larval population was dead. Experiments were repeated three times and carried out in triplicate.

[6] = Homo sapiens, HL-60, MTT method

**Q.** Cc1cc(/C=C2/C(C(=O)O)=NCC[C@@H]2O)c2c(C)ccc(C(C)C)cc1-2 [(+)-2] was tested. Which IC50 ([1]; Homo sapiens) did it give?
**A.** > 100 µM

**Q.** What about the IC50 ([2]; Homo sapiens, HeLa) of the same molecule?
**A.** > 100 µM

**Q.** What about the IC50 ([3]; Homo sapiens, K562, MTT method) of the same molecule?
**A.** > 100 µM

**Q.** What about the IC50 [4, 6] of the same molecule?
**A.** > 100 µM

**Q.** What does the source list for CC1=CC(=O)C2(C3C(=O)c4c(cc(C(C)C)c(C=O)c4C)C3(C)O)C(C)=CC=C(C(C)C)C=C12 (racemic) [compound 4, (±)-Muriceidone A]?
**A.** IC50 ([1]; Homo sapiens): > 100 µM; IC50 [2]: > 100 µM; IC50 ([3]; Homo sapiens, K562, MTT method): > 100 µM; IC50 [4, 6]: > 100 µM

**Q.** For CO[C@H]1CCN=C(C(=O)O)/C1=C/c1cc(C)c2cc(C(C)C)ccc(C)c1-2 [(+)-3], which IC50 ([1]; Homo sapiens) is on record?
**A.** > 100 µM

**Q.** And the IC50 ([2]; Homo sapiens, HeLa)?
**A.** 53.7 µM

**Q.** And the IC50 ([3]; Homo sapiens, K562, MTT method)?
**A.** 47.2 µM

**Q.** And the IC50 [4, 6]?
**A.** 22.7 µM

**Q.** With CC1=CC(=O)C2(C3C(=O)c4c(cc(C(C)C)c(C=O)c4C)C3(C)O)C(C)=CC=C(C(C)C)C=C12 (single isomer, unassigned; (-)) [(−)-4] as the molecule, how does the IC50 [1] read?
**A.** > 100 µM

**Q.** What about the IC50 [2] of the same molecule?
**A.** 40 µM

**Q.** And the IC50 ([3]; MTT method)?
**A.** > 100 µM

**Q.** And the IC50 ([4]; MTT method)?
**A.** > 100 µM

**Q.** For CC1=CC(=O)C2(C3C(=O)c4c(cc(C(C)C)c(C=O)c4C)C3(C)O)C(C)=CC=C(C(C)C)C=C12 (single isomer, unassigned; (+)) [(+)-4], which IC50 [1] is on record?
**A.** > 100 µM

**Q.** What about the IC50 [2] of the same molecule?
**A.** 42.7 µM

**Q.** What about the IC50 ([3]; MTT method) of the same molecule?
**A.** 88.4 µM

**Q.** What about the IC50 ([4]; MTT method) of the same molecule?
**A.** 54.2 µM

**Q.** Which results are given for Cc1cc(/C=C2\CCCN=C2C(=O)O)c2c(C)ccc(C(C)C)cc1-2 [compound 1, Muriceidine A]?
**A.** IC50 ([1]; Homo sapiens): > 100 µM; IC50 ([2]; Homo sapiens, HeLa): 17.9 µM; IC50 ([3]; Homo sapiens, K562, MTT method): 8.37 µM; IC50 ([3]; MTT method): 8.4 µM; IC50 [4, 6]: > 100 µM; EC50 [5]: 11.9 µg/mL (≈ 35.5 µM)

**Q.** Which EC50 [5] does the source give for Cc1cc(C=O)c2c(C)ccc(C(C)C)cc1-2 [compound 6, 3-formyl guaiazulene] here?
**A.** 2.39 µg/mL (≈ 10.6 µM)

**Q.** For Cc1cc(/C=C2/C(C(=O)O)=NCC[C@H]2O)c2c(C)ccc(C(C)C)cc1-2 [(−)-2], which IC50 ([1]; Homo sapiens) is on record?
**A.** > 100 µM

**Q.** And the IC50 ([2]; Homo sapiens, HeLa)?
**A.** > 100 µM

**Q.** What about the IC50 ([3]; Homo sapiens, K562, MTT method) of the same molecule?
**A.** > 100 µM

**Q.** And the IC50 [4, 6]?
**A.** > 100 µM

**Q.** What does the source list for COC1CCN=C(C(=O)O)/C1=C/c1cc(C)c2cc(C(C)C)ccc(C)c1-2 (racemic) [compound 3, (±)-Muriceidine C]?
**A.** IC50 ([1]; Homo sapiens): 82.7 µM; IC50 ([2]; Homo sapiens, HeLa): > 100 µM; IC50 ([3]; Homo sapiens, K562, MTT method): 3.68 µM; IC50 ([3]; MTT method): 3.7 µM; IC50 [4, 6]: 2.19 µM; IC50 ([4]; MTT method): 2.2 µM

**Q.** With COc1cccc2c1C(=O)c1c(O)c3c(c(O)c1C2=O)C[C@@](O)(C(=O)CO)C[C@@H]3O[C@H]1C[C@H](N)[C@H](O)[C@H](C)O1 [Adramycin, Adriamycin, reference compound] as the molecule, how does the IC50 ([1]; Homo sapiens) read?
**A.** 0.6 µM

**Q.** What about the IC50 ([2]; Homo sapiens, HeLa) of the same molecule?
**A.** 0.6 µM

**Q.** And the IC50 ([3]; Homo sapiens, K562, MTT method)?
**A.** 0.2 µM

**Q.** And the IC50 [4, 6]?
**A.** 0.3 µM

**Q.** What does the source list for Cc1cc(/C=C2/C(C(=O)O)=NCCC2O)c2c(C)ccc(C(C)C)cc1-2 (racemic) [compound 2, (±)-Muriceidine B]?
**A.** IC50 ([1]; Homo sapiens): > 100 µM; IC50 ([2]; Homo sapiens, HeLa): > 100 µM; IC50 ([3]; Homo sapiens, K562, MTT method): > 100 µM; IC50 [4, 6]: > 100 µM

**Q.** CO[C@@H]1CCN=C(C(=O)O)/C1=C/c1cc(C)c2cc(C(C)C)ccc(C)c1-2 [(−)-3] was tested. Which IC50 ([1]; Homo sapiens) did it give?
**A.** > 100 µM

**Q.** What about the IC50 ([2]; Homo sapiens, HeLa) of the same molecule?
**A.** 53.2 µM

**Q.** What about the IC50 ([3]; Homo sapiens, K562, MTT method) of the same molecule?
**A.** 53.2 µM

**Q.** And the IC50 [4, 6]?
**A.** 5.08 µM

**Q.** What about the IC50 ([4]; MTT method) of the same molecule?
**A.** 5.1 µM

— article PMC5550455, “Unusual Inner-Salt Guaiazulene Alkaloids and bis-Sesquiterpene from the South China Sea Gorgonian Muriceides collaris” (Scientific Reports, 2017)
